Experimental data reported in patent US8574547B2, “Photoacoustic probes and methods of imaging” (The Board of Trustees of the Leland Stanford Junior …, priority 2007, dated 2013).

Biological target: T1, αvβ3 integrin (Homo sapiens, UniProt P05106+P06756)
T1 construct: endogenous in cells
Assay: Targeting ability: imaging inhibition of Alexa488 conjugated αvβ3 integrin antibody binding to cells
Format: cell-based
Conditions: cells incubated 1 hour with substance, then ½ hour with Alexa488 conjugated αvβ3 integrin antibody
Procedure: FIGS. 7(1)-7(4) illustrate digital images of cells that were incubated for 1 hour with PBS (FIG. 7(1)), QSY-21 (FIG. 7(2)), […] (FIG. 7(3)), and […] (FIG. 7(4)). Then the cells were incubated for ½ hour with Alexa488 conjugated αvβ3 integrin antibody.
Targeting ability of the conjugate was tested by imaging inhibition of the avb3 intergrin antibody. Cells were incubated for 1 hour with PBS (FIG. 7(1)), QSY-21 (FIG. 7(2)), RGD-QSY21 (FIG. 7(3)), and RGD (FIG. 7(4)). Then the cells were incubated for ½ hour with Alexa488 conjugated αvβ3 integrin antibody.

T1 sequence (P06756 31-889 limits assumed): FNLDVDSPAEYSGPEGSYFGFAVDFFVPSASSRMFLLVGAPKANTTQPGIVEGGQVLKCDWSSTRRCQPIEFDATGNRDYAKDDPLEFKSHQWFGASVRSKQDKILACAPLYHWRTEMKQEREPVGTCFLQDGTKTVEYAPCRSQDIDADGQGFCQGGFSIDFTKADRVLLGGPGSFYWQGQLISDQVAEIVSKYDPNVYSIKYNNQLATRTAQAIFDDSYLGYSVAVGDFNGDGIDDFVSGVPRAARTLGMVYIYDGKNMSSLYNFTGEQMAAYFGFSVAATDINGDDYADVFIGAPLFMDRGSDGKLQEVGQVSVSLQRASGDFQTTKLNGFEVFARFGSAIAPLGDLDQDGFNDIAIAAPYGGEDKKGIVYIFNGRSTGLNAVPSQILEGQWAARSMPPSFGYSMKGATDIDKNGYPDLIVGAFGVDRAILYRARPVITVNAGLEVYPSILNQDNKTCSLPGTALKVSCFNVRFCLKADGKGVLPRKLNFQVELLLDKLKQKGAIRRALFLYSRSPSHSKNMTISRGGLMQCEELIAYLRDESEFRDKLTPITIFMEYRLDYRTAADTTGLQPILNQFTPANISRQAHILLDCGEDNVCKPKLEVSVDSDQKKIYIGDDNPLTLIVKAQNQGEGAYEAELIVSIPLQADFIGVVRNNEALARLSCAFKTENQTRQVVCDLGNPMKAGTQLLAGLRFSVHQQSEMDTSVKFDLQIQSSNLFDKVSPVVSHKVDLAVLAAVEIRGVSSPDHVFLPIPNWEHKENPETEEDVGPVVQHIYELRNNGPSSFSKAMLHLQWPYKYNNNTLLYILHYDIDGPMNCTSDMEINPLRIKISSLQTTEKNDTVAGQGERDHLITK
T1 sequence (P06756 891-1048 partner limits assumed): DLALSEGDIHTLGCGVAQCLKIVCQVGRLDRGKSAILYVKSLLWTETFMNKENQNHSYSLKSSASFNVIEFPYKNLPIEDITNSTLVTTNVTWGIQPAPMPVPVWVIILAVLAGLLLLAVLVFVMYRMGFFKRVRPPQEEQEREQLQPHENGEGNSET
T1 sequence (P05106 27-788): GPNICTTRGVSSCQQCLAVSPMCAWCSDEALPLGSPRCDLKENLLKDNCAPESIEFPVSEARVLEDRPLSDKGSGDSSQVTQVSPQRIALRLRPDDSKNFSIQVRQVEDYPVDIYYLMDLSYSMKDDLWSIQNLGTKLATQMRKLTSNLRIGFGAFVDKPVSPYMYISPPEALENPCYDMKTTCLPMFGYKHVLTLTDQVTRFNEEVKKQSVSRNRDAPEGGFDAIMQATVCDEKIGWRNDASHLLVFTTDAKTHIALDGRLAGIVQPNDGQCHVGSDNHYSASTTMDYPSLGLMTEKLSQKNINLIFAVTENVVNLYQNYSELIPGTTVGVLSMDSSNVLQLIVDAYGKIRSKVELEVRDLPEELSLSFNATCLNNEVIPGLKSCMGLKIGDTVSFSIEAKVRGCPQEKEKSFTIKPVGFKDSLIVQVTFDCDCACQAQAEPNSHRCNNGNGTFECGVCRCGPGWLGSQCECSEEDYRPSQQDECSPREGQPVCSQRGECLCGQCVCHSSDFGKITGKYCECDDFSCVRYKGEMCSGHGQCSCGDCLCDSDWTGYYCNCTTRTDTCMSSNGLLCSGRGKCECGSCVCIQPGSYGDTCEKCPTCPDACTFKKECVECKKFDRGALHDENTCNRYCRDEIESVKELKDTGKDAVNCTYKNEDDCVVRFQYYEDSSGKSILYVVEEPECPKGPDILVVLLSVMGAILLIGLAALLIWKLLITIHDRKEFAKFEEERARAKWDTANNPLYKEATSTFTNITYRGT

For Arg-Gly-Asp [RGD], the “inhibition of αvβ3 integrin antibody binding” value was “inhibition of antibody binding”.
